Test results as given in US20170044521A1, “BIOMASS EXTRACTS AND METHODS THEREOF” (Lakeview Nutrition LLC, priority 2014, published 2017).
Read-outs that look alike come from different tables or passages of the source.

Legend:
[1] = mouse, in vivo, po
Protocol: (§1) Thirty-six male CD-1 mice (22-24 g) were purchased from Charles River Labs (Wilmington, Mass.). Before the study, they were allowed acclimation for at least 3 days in an SPF facility. Animal housing, handling and procedures were conducted under the protocols or guidelines approved by the Institutional Animal Care and Use Committee (IACUC) of Cephrim Biosciences, Inc. (Woburn, Mass.). Three mice were housed in each cage. The temperature, humidity and light/dark cycle were well maintained at 68-76° F., 40-60% relative humidity, with a 12 h light/dark cycle. Mice were allowed free access to water and food.
(§2) On the first day of the study, the mice were randomly assigned into two groups, alcohol extract (AE, of DDGS) group and oil extract (OE, of DDGS) group. Each group of mice was further divided into 6 subgroups, representing 6 time points (i.e., 0 hr, 0.5 hr, 1.0 hr, 3.0 hr, 7.0 hr and 24 hr). Each of two extracts was given to each group of mice by oral gavage at the dosage of 2 mL for AE and 2 mL for OE. The time of dosing was set as the Time Zero. Blood samples were collected by cardiac puncture and were immediately transferred to a set of heparinized tubes.
(§3) Blood samples at Time-0 hr were collected right before dosing. And at each of rest 5 time points the Time-0.5 hr, -1.0 hr, -3.0 hr, -7.0 hr and −24 hr after the extracts were given, blood samples were collected from each subgroup (n=3). All blood samples were placed on ice after their collection and were spun at 14000 rpm/min. The top plasma were transferred into new pre-labeled tubes and the samples were stored at −70° C. until analysis.
(§4) Mice plasmas (150 pt) were mixed with 600 pt of hexane and shaken at 200 rpm for 10 min. The mixtures were centrifuged at 14,000 rpm for 6 min. The supernatant was evaporated to dryness under nitrogen and replaced with 100 pt of methanol. […]
(§5) Compounds were separated on a C30 reverse-phase column (250×4.6 mm, 5 um) at a flow rate of 1 mL/min. […] The detection was conducted in a fluorescence detector with excitation of 292 nm and emission of 336 nm. […]

[2] = Bioavailability study: absorption of DDGS phytochemicals in plasma of mice after oral gavage of DDGS extracts; settings: oral gavage of 2 mL alcohol extract (AE) or oil extract (OE) of DDGS, plasma sampled at 0, 0.5, 1.0, 3.0, 7.0 and 24 hr, HPLC
Protocol: as §1, §2, §3, §4, §5

| SMILES | time of maximal absorption in plasma of mice after gastric infusion [1] [h] | time of maximal absorption in plasma of mice after gastric infusion [2] [h] |
| --- | --- | --- |
| Cc1c(C)c2c(c(C)c1O)CC[C@@](C)(CCC[C@H](C)CCC[C@H](C)CCCC(C)C)O2 [alpha-tocopherol] | 3 |  |
| CC(C)=CCC/C(C)=C/CC/C(C)=C/CC[C@]1(C)CCc2cc(O)cc(C)c2O1 [delta-tocotrienol] | 24 |  |
| Cc1c(O)cc2c(c1C)O[C@](C)(CCC[C@H](C)CCC[C@H](C)CCCC(C)C)CC2 [gamma-tocopherol] |  | 3 |
